The text below walks through data of ChEMBL document CHEMBL4392873, “Transformation of Santonin to a Naproxen Analogue with Anti-Inflammatory Activity” (J Nat Prod, 2019).

The target of assay [1] is Prostaglandin G/H synthase 1 (Ovis aries) (UniProt P05979). Briefly: Inhibition of ovine COX1 assessed as reduction in prostaglandin E2 production at 30 uM incubated for 10 mins before arachidonic acid addition and measured after 25 mins by LC-MS/MS analysis.
The test system of assay [2] is Prostaglandin G/H synthase 2. Description: Inhibition of COX2 (unknown origin) assessed as reduction in prostaglandin E2 production at 30 uM incubated for 10 mins before arachidonic acid addition and measured after 25 mins by LC-MS/MS analysis. The following applies: Homo sapiens.
Assay [3] in a line: Selectivity index, ratio of IC50 for ovine COX1 to IC50 for COX2 (unknown origin).

With `COC(=O)[C@@H](C)c1ccc2c(C)cc(O)c(C)c2c1`, the inhibition – broadly, the percentage by which the read-out fell short of the control – in assay [1] is 52.9%; in assay [2], 21.8%. In assay [3], the Ratio IC50 was 0.496.
